From US20260285850A1, “SUBSTITUTED OXAZOLIDINONES AND IMIDAZOLINONES AS HERBICIDES” (FMC CORPORATION, priority 2023, published 2026)

Assays:
Type in all cases: in vivo
corn (Zea mays) [1] = assay: Test A preemergence soil spray, visual injury rating 0-100; details: 10 days
In short: (§1)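 Greenhouse test: loam/sand pots received a surfactant-containing formulation, as a preemergence directed soil spray or a postemergence spray on young plants. Injury was judged visually at day 10 relative to untreated controls.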

[2] = system: wheat (Triticum aestivum); assay: as above; details: 10 days
In short: as §1

[3] = system: barnyardgrass (Echinochloa crus-galli); assay: as above; details: 10 days
In short: as §1

[4] = system: oat, wild (wild oat, Avena fatua); assay: as above; details: 10 days
In short: as §1

[5] = system: ryegrass, Italian (italian ryegrass, Lolium multiflorum); assay: as above; details: 10 days
In short: as §1

[6] = system: blackgrass (Alopecurus myosuroides); assay: as above; details: 10 days
In short: as §1

soybean (Glycine max) [7] = assay: as above; details: 10 days
In short: as §1

[8] = system: ragweed (common ragweed, Ambrosia artemisiifolia); assay: as above; details: 10 days
In short: as §1

kochia (Bassia scoparia) [9] = assay: as above; details: 10 days
In short: as §1

[10] = system: palmer (palmer amaranth, palmer pigweed, Amaranthus palmeri); assay: as above; details: 10 days
In short: as §1

[11] = system: green foxtail (Setaria viridis); assay: as above; details: 10 days
In short: as §1

corn (Zea mays) [12] = assay: Test A postemergence application, visual injury rating 0-100
In short: as §1

[13] = system: wheat (Triticum aestivum); assay: as above
In short: as §1

[14] = system: barnyardgrass (Echinochloa crus-galli); assay: as above
In short: as §1

[15] = system: oat, wild (wild oat, Avena fatua); assay: as above
In short: as §1

[16] = system: ryegrass, Italian (italian ryegrass, Lolium multiflorum); assay: as above
In short: as §1

[17] = system: blackgrass (Alopecurus myosuroides); assay: as above
In short: as §1

[18] = system: galium (catchweed bedstraw, Galium aparine); assay: as above
In short: as §1

soybean (Glycine max) [19] = assay: as above
In short: as §1

[20] = system: ragweed (common ragweed, Ambrosia artemisiifolia); assay: as above
In short: as §1

kochia (Bassia scoparia) [21] = assay: as above
In short: as §1

[22] = system: horseweed (Erigeron canadensis); assay: as above
In short: as §1

[23] = system: palmer (palmer amaranth, palmer pigweed, Amaranthus palmeri); assay: as above
In short: as §1

[24] = system: green foxtail (Setaria viridis); assay: as above
In short: as §1

[25] = system: sedge, umbrella (small-flower umbrella sedge, Cyperus difformis); assay: Test B flooded paddy test, visual plant response rating 0-100; details: 250 g ai/ha, Flood, applied to paddy water, evaluated after 13 days
In short: (§2)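 Compounds applied to standing paddy water (3 cm above soil, maintained for the test duration) on 2-leaf-stage plants; visual rating vs controls at 13 days, greenhouse.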

[26] = system: ducksalad (Heteranthera limosa); assay: as above; details: 250 g ai/ha, Flood, applied to paddy water, evaluated after 13 days
In short: as §2

[27] = system: barnyardgrass (Echinochloa crusgalli); assay: as above; details: 250 g ai/ha, Flood, applied to paddy water, evaluated after 13 days
In short: as §2

rice (Oryza sativa) = assay: as above; details: 250 g ai/ha, Flood, applied to paddy water, evaluated after 13 days
In short: as §2

[28] = 62 g ai/ha, 0 = no effect, 100 = complete control
[29] = 62 g ai/ha, postemergence, 10 days, 0 = no effect, 100 = complete control
[30] = Postemergence, 16 g ai/ha, greenhouse 10 days, 0 no effect, 100 complete control

## COC(=O)C1CC(NC(=O)C2(C)CN(c3cc(F)cc(F)c3)C(=O)O2)C1 (stereo not shown) [Compound 118, methyl 3-[[3-(3,5-difluorophenyl)-5-methyl-2-oxo-oxazolidine-5-carbonyl]amino]cyclobutanecarboxylate]
Corn (Zea mays) [1]; 16 g ai/ha, 0 to 100 scale
  Corn plant response rating: 30
Corn (Zea mays) [1]; [28]
  Corn plant response rating (0-100): 90
[2]; 16 g ai/ha, 0 to 100 scale
  Wheat plant response rating: 20
[2]; [28]
  Wheat plant response rating (0-100): 80
[3]; 16 g ai/ha, 0 to 100 scale
  Barnyardgrass plant response rating: 10
[3]; [28]
  Barnyardgrass plant response rating (0-100): 80
[4]; 16 g ai/ha, 0 to 100 scale
  Oat, Wild plant response rating: 90
[4]; [28]
  Oat, Wild plant response rating (0-100): 90
[5]; 16 g ai/ha, 0 to 100 scale
  Ryegrass, Italian plant response rating: 20
[5]; [28]
  Ryegrass, Italian plant response rating (0-100): 80
[6]; 16 g ai/ha, 0 to 100 scale
  Blackgrass plant response rating: 30
[6]; [28]
  Blackgrass plant response rating (0-100): 90
Soybean (Glycine max) [7]; 16 g ai/ha, 0 to 100 scale
  Soybean plant response rating: 0
Soybean (Glycine max) [7]; [28]
  Soybean plant response rating (0-100): 30
[8]; 16 g ai/ha, 0 to 100 scale
  Ragweed plant response rating: 0
[8]; [28]
  Ragweed plant response rating (0-100): 0
Kochia (Bassia scoparia) [9]; 16 g ai/ha, 0 to 100 scale
  Kochia plant response rating: 0
Kochia (Bassia scoparia) [9]; [28]
  Kochia plant response rating (0-100): 60
[10]; 16 g ai/ha, 0 to 100 scale
  Pigweed, Palmer plant response rating: 20
[10]; [28]
  Pigweed, Palmer plant response rating (0-100): 50
[11]; 16 g ai/ha, 0 to 100 scale
  Foxtail, Green plant response rating: 60
[11]; [28]
  Foxtail, Green plant response rating (0-100): 90
Corn (Zea mays) [12]; [29]
  Corn plant response rating (0-100): 100
Corn (Zea mays) [12]; [30]
  Corn plant response rating (0 to 100 scale): 90
[13]; [29]
  Wheat plant response rating (0-100): 90
[13]; [30]
  Wheat plant response rating (0 to 100 scale): 80
[14]; [29]
  Barnyardgrass plant response rating (0-100): 100
[14]; [30]
  Barnyardgrass plant response rating (0 to 100 scale): 50
[15]; [29]
  Oat, Wild plant response rating (0-100): 90
[15]; [30]
  Oat, Wild plant response rating (0 to 100 scale): 30
[16]; [29]
  Ryegrass, Italian plant response rating (0-100): 80
[16]; [30]
  Ryegrass, Italian plant response rating (0 to 100 scale): 20
[17]; [29]
  Blackgrass plant response rating (0-100): 100
[17]; [30]
  Blackgrass plant response rating (0 to 100 scale): 90
[18]; [29]
  Galium plant response rating (0-100): 60
[18]; [30]
  Galium plant response rating (0 to 100 scale): 50
Soybean (Glycine max) [19]; [29]
  Soybean plant response rating (0-100): 60
Soybean (Glycine max) [19]; [30]
  Soybean plant response rating (0 to 100 scale): 60
[20]; [29]
  Ragweed plant response rating (0-100): 50
[20]; [30]
  Ragweed plant response rating (0 to 100 scale): 30
Kochia (Bassia scoparia) [21]; [29]
  Kochia plant response rating (0-100): 70
Kochia (Bassia scoparia) [21]; [30]
  Kochia plant response rating (0 to 100 scale): 30
[22]; [29]
  Horseweed plant response rating (0-100): 0
[22]; [30]
  Horseweed plant response rating (0 to 100 scale): 0
[23]; [29]
  Pigweed, Palmer plant response rating (0-100): 70
[23]; [30]
  Pigweed, Palmer plant response rating (0 to 100 scale): 20
[24]; [29]
  Foxtail, Green plant response rating (0-100): 90
[24]; [30]
  Foxtail, Green plant response rating (0 to 100 scale): 90
[25]
  Plant response rating, Sedge, Umbrella (0 to 100 scale, 0 is no effect and 100 is complete control): 0
[26]
  Plant response rating, Ducksalad (0 to 100 scale, 0 is no effect and 100 is complete control): 0
[27]
  Plant response rating, Barnyardgrass (0 to 100 scale, 0 is no effect and 100 is complete control): 0
Rice (Oryza sativa)
  Plant response rating, Rice (0 to 100 scale, 0 is no effect and 100 is complete control): 0
